The record followed here is patent US11834453B2, “Substituted pyrimido[5,4-d]pyrimidines as HER2 inhibitors” (Array BioPharma Inc., priority 2020, dated 2023).

Where two headings read alike, the source gives them in different places.

The target in experiment [1] is ErbB2 insYVMA (HER2-YVMA, SEQ ID NO: 2) (Homo sapiens, UniProt P04626, INS775YVMA/P1170A). Kind of experiment: biochemical. To be noted: ErbB2 insYVMA enzyme assay.
Another experiment has as its target ErbB2 WT (Homo sapiens (Human), UniProt P04626). Description: ErbB enzyme assay (CisBio HTRF KinEASE-TK), Assay 2. The experiment is classed as biochemical. The method, then:
Compound potencies were determined using CisBio's HTRF Kinease-TK assay technology. The kinases were incubated with 250 nM TK-substrate biotin (CisBio, part of cat #62TK0PEC) at 1 mM ATP along with test compounds in a buffer consisting of 25 mM HEPES, pH 7.4, 10 mM MgCl2, 0.01% Triton X-100, and 2% DMSO in a volume of 8 μL. […] After 30-minute incubation at 22° C., the reaction was quenched by adding 8 μL of quench solution containing 62.5 nM Sa-XL665 and 0.25× TK-Ab-Cryptate in HTRF detection buffer (all from CisBio, part of cat #62TK0PEC). After a 1-hour incubation at 22° C., the extent of reaction was determined using a PerkinElmer EnVision multimode plate reader via HTRF dual wavelength detection, and the percent of control (POC) was calculated using a ratiometric emission factor. One hundred POC was determined using DMSO only samples (no compound present), and 0 POC was determined using pre-quenched control reactions.
(§1) Enzyme lots and concentration used are in Table 2.

In a further experiment the target is EGFR (Homo sapiens (Human), UniProt P00533). Kind of experiment: ErbB enzyme assay (CisBio HTRF KinEASE-TK), Assay 3. The experiment is classed as biochemical. The method, then:
Compound potencies were determined using CisBio's HTRF Kinease-TK assay technology. The kinases were incubated with 250 nM TK-substrate biotin (CisBio, part of cat #62TK0PEC) at 1 mM ATP along with test compounds in a buffer consisting of 25 mM HEPES, pH 7.4, 10 mM MgCl2, 0.01% Triton X-100, and 2% DMSO in a volume of 8 μL. Compounds were prepared as a three-fold serial dilution in DMSO and added to the assay to give the appropriate final concentration. After 30-minute incubation at 22° C., the reaction was quenched by adding 8 μL of quench solution containing 62.5 nM Sa-XL665 and 0.25× TK-Ab-Cryptate in HTRF detection buffer (all from CisBio, part of cat #62TK0PEC). After a 1-hour incubation at 22° C., the extent of reaction was determined using a PerkinElmer EnVision multimode plate reader via HTRF dual wavelength detection, and the percent of control (POC) was calculated using a ratiometric emission factor. One hundred POC was determined using DMSO only samples (no compound present), and 0 POC was determined using pre-quenched control reactions. A 4-parameter logistic curve was fit to the POC values as a function of the concentration of compound, and the IC50 value was the point where the best-fit curve crossed 50 POC.
as §1
For orientation: In TR-FRET formats the signal depends on donor and acceptor labels being close together.

Experiment [2] has as its target ErbB2 with Exon 20 YVMA insertion (HER2-YVMA) (Homo sapiens (Human), UniProt P04626, INS775YVMA). Kind of experiment: Cellular phosphorylation assay, constitutive ErbB2 phosphorylation (Y1196) in engineered NIH 3T3 cells, Assay 4. The experiment is classed as cell-based. On the procedure: Serially diluted compounds were added to the plates for 1 hour at 37° C./5% CO2. EGFR WT cells were stimulated with 100 ng/ml rEGF for an additional 10 minutes at 37° C./5% CO2. After compound incubation, medium was removed from the cells, which were then fixed in 3.7% formaldehyde in PBS at room temperature for 20 minutes. Following a wash with PBS, cells were permeabilized with 100% methanol at room temperature for 10 minutes. Cells were then washed with PBS/0.05% Tween-20 and blocked with Odyssey blocking buffer (LI-COR Biosciences) for at least 1 hour at room temperature. Antibodies to phosphorylated ErbB2 (Y1196, Cell Signaling #6942) or phosphorylated EGFR (Y1068, Cell Signaling #3777) and GAPDH (Millipore #MAB374) were added to the cells in blocking buffer containing 0.05% azide and incubated overnight at 4° C. After washing with PBS/0.05° i° Tween-20, the cells were incubated with fluorescently labeled secondary anti-rabbit antibody (LiCOR, IRDye 800CW #926-32211) and anti-mouse antibody (Molecular Probes, Alexa Fluor 680 #A21058) for 1 hour at room temperature in the dark. Cells were then washed and analyzed for fluorescence at both wavelengths using the Odyssey Infrared Imaging System (LI-COR Biosciences). Phosphorylated ErbB2 and EGFR signal was normalized to GAPDH signal to generate curves and calculate IC50 values.

The IC50 is the point on the concentration scale where inhibition reaches its midpoint.

Chain of ErbB2 WT (P04626 23-1255): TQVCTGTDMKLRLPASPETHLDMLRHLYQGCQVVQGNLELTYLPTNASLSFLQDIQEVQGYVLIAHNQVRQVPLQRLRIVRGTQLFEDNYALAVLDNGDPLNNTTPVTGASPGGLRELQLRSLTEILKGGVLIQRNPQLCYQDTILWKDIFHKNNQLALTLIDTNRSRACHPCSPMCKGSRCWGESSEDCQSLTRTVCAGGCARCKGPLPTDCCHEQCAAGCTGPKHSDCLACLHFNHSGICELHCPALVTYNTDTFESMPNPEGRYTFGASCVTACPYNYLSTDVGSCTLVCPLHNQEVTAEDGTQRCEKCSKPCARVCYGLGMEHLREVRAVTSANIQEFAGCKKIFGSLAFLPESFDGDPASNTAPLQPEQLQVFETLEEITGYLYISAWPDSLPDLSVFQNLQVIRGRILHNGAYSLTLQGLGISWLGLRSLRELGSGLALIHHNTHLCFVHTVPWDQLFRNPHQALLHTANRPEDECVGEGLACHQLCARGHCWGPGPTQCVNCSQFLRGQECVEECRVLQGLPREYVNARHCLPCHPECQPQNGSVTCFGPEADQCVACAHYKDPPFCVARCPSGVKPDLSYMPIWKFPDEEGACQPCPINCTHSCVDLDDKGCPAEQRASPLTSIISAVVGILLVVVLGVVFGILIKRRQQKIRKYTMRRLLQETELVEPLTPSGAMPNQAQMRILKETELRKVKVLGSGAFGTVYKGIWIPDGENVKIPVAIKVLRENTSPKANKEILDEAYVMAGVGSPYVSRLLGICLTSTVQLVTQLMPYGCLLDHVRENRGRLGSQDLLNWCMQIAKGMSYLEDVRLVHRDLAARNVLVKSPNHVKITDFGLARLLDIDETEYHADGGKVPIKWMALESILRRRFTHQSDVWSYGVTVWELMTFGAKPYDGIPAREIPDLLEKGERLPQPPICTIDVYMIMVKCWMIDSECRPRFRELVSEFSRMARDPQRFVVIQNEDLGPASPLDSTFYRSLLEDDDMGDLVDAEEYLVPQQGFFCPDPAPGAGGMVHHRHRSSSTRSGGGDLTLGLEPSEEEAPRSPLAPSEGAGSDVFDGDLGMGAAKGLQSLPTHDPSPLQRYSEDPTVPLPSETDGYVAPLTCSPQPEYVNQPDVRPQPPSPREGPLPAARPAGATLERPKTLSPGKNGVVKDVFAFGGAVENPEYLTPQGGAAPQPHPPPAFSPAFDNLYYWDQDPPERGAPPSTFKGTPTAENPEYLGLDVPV
Chain of ErbB2 insYVMA (HER2-YVMA, SEQ ID NO: 2) (P04626 with tags, fused parts or gaps INS775YVMA/P1170A limits assumed): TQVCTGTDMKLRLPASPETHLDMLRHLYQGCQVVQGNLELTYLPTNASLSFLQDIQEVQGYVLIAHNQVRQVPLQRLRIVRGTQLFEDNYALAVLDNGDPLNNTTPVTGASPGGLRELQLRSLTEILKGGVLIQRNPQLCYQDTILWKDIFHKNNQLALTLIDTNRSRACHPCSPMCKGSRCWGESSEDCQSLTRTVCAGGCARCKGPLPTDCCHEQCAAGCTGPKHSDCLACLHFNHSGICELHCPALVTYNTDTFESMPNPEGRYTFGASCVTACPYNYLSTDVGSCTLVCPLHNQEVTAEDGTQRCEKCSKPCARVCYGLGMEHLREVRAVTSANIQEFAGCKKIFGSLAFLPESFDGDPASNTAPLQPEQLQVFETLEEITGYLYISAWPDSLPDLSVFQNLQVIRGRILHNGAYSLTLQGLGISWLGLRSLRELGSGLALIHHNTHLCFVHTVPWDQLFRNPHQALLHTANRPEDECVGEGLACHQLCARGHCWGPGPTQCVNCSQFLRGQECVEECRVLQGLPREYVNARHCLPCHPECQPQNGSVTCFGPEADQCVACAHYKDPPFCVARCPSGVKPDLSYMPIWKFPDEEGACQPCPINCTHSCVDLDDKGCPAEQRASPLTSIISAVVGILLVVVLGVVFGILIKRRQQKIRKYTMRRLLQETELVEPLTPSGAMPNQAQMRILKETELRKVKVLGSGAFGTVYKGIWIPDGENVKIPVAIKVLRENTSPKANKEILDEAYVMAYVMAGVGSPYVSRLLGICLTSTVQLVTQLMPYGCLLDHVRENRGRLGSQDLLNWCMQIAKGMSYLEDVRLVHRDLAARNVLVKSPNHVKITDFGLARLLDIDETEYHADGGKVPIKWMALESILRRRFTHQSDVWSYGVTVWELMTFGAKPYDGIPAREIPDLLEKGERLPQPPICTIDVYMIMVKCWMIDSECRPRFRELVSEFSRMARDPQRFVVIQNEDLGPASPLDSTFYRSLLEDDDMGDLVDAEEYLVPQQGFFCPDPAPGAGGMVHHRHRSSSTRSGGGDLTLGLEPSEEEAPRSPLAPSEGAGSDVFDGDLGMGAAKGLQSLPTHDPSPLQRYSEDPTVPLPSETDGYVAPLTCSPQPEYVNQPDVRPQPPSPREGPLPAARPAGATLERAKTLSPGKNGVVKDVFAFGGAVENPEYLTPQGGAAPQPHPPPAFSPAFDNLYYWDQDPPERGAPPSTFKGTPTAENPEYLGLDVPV
Chain of ErbB2 with Exon 20 YVMA insertion (HER2-YVMA) (P04626 other isoform, or with tags, fused parts or gaps ins YVMA behind 775): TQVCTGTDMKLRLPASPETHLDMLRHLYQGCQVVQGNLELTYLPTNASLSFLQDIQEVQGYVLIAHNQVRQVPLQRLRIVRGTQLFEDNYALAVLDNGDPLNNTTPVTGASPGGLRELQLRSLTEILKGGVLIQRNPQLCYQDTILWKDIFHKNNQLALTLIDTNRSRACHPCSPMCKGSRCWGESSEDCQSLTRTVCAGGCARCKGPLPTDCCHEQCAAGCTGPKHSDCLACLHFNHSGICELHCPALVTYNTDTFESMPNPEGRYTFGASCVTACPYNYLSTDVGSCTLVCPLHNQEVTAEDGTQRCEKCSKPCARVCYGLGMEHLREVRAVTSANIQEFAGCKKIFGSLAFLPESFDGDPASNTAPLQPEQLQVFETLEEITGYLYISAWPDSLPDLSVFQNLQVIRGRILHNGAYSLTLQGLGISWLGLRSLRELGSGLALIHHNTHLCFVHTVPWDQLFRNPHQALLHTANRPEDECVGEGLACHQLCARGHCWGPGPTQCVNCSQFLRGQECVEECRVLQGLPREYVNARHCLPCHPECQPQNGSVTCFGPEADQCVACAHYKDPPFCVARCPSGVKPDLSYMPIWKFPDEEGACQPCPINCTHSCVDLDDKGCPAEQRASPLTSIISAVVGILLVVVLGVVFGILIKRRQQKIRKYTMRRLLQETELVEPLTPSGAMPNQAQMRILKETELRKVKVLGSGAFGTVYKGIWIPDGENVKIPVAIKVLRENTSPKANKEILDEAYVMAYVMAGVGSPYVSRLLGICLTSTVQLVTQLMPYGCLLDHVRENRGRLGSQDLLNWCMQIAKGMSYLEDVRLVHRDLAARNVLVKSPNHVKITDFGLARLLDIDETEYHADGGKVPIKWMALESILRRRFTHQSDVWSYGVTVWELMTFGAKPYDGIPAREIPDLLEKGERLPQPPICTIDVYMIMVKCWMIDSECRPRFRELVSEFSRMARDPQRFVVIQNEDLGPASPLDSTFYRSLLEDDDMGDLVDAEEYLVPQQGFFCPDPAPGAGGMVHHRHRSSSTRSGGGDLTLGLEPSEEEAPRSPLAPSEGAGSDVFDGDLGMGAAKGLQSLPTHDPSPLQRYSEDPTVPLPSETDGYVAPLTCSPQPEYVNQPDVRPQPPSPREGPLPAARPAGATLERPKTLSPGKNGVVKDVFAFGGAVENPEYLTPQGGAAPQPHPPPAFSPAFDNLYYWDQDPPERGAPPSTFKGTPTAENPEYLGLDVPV
Chain of EGFR (P00533 25-1210): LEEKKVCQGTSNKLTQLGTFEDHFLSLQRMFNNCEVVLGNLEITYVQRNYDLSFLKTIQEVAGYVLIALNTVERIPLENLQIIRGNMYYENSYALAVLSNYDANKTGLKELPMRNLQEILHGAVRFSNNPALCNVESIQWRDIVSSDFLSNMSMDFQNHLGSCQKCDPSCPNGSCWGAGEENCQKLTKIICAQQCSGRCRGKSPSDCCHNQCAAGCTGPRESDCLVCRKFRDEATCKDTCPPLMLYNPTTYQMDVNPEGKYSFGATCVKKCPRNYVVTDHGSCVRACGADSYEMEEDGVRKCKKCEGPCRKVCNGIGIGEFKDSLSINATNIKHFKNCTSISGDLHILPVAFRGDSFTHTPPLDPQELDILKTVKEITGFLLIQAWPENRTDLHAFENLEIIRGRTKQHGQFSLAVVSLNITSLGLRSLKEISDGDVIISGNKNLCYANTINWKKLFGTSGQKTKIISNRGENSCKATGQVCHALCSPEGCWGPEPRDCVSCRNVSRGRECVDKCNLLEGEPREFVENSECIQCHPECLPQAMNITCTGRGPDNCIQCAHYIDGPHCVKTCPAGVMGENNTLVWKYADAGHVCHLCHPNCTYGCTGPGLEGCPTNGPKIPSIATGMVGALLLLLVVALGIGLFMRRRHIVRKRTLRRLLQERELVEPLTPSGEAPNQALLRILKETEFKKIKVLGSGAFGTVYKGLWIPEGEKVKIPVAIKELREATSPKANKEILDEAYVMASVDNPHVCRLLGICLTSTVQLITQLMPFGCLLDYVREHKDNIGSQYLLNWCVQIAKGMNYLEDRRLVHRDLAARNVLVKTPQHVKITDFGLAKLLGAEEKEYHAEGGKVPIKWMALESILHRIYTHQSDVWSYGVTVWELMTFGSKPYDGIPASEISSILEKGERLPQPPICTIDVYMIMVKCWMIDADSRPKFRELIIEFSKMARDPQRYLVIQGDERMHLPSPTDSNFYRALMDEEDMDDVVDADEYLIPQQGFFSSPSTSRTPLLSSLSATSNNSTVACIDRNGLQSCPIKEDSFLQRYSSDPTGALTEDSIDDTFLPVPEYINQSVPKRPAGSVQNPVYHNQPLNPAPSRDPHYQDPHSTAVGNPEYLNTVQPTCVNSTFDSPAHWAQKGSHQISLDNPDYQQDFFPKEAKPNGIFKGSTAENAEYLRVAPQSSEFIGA

`Cc1cc(Nc2ncnc3cnc(N[C@H](C)COC(F)(F)F)nc23)ccc1Oc1ccc2c(c1)ncn2C` [Example 64, (R)—N8-(3-methyl-4-((1-methyl-1H-benzo[d]imidazol-5-yl)oxy)phenyl)-N2-(1-(trifluoromethoxy)propan-2-yl)pyrimido[5,4-d]pyrimidine-2,8-diamine]: the IC50 is 157 nM in experiment [1] (read-out: Assay 1 IC50), 1300 nM on ErbB2 WT, not below 10000 nM at EGFR and 324 nM in experiment [2].

Consider `Cc1cc(Nc2ncnc3cnc(N4C[C@H](C)O[C@@H](C)C4)nc23)ccc1Oc1ccc2c(c1)ncn2C` [Example 72, 6-((2S,6S)-2,6-dimethylmorpholino)-N-(3-methyl-4-((1-methyl-1H-benzo[d]imidazol-5-yl)oxy)phenyl)pyrimido[5,4-d]pyrimidin-4-amine], for which the IC50 is 69.6 nM in experiment [1] (Assay 1 IC50 (nM)), 83.9 nM on ErbB2 WT, not below 10000 nM at EGFR and 76.6 nM in experiment [2].

Regarding `CCn1cnc2cc(Oc3ccc(Nc4ncnc5cnc(N6CCOCC6)nc45)cc3C)ccc21` [Example 75, N-(4-((1-ethyl-1H-benzo[d]imidazol-5-yl)oxy)-3-methylphenyl)-6-morpholinopyrimido[5,4-d]pyrimidin-4-amine 2,2,2-trifluoroacetate], the half-inhibitory concentration (IC50) in experiment [1] (Assay 1 IC50 (nM)) is 51.8 nM; against ErbB2 WT it was 141 nM; at EGFR it was not below 10000 nM; in experiment [2], 23.9 nM.

For the molecule `COCCOc1ncc2ncnc(Nc3ccc(Oc4ccc5c(c4)ncn5C)c(C)c3)c2n1` [Example 76, 6-(2-methoxyethoxy)-N-(3-methyl-4-((1-methyl-1H-benzo[d]imidazol-5-yl)oxy)phenyl)pyrimido[5,4-d]pyrimidin-4-amine 2,2,2-trifluoroacetate], the IC50 in experiment [1] (Assay 1 IC50 (nM)) was 337 nM; at ErbB2 WT, 2340 nM; against EGFR, not below 10000 nM; in experiment [2], 1300 nM.

With `Cn1cnc2cc(Oc3ccc(Nc4ncnc5cnc(N6CCOCC6)nc45)cc3Cl)ccc21` [Example 81, N-(3-chloro-4-((1-methyl-1H-benzo[d]imidazol-5-yl)oxy)phenyl)-6-morpholinopyrimido[5,4-d]pyrimidin-4-amine 2,2,2-trifluoroacetate], the concentration for half-maximal inhibition (IC50) in experiment [1] (Assay 1 IC50 (nM)) is 153 nM; at ErbB2 WT, 847 nM; against EGFR it was not below 10000 nM; in experiment [2], 77.1 nM.

For `CC(=O)N1C2CC1CN(c1ncc3ncnc(Nc4ccc(Oc5ccc6c(c5)ncn6C)c(C)c4)c3n1)C2` [Example 89, 1-(3-(8-((3-methyl-4-((1-methyl-1H-benzo[d]imidazol-5-yl)oxy)phenyl)amino)pyrimido[5,4-d]pyrimidin-2-yl)-3,6-diazabicyclo[3.1.1]heptan-6-yl)ethan-1-one], the IC50 was 68.1 nM in experiment [1] (read-out: Assay 1 IC50), 285 nM against ErbB2 WT, not below 10000 nM on EGFR and 187 nM in experiment [2].

As to `Cc1cc(Nc2ncnc3cnc(OCC(F)F)nc23)ccc1Oc1ccc2c(c1)ncn2C` [Example 177, 6-(2,2-difluoroethoxy)-N-(3-methyl-4-((1-methyl-1H-benzo[d]imidazol-5-yl)oxy)phenyl)pyrimido[5,4-d]pyrimidin-4-amine], the IC50 in experiment [1] (read-out: Assay 1 IC50) is 53.2 nM; against ErbB2 WT, 150 nM; at EGFR, not below 10000 nM; in experiment [2], 109 nM.

`CCCOc1ncc2ncnc(Nc3ccc(Oc4ccc5c(c4)ncn5C)c(C)c3)c2n1` [Example 221]: the IC50 was 122 nM in experiment [1] (read-out: Assay 1 IC50), 334 nM against ErbB2 WT, not below 10000 nM against EGFR and 548 nM in experiment [2].

With `Cc1cc(Nc2ncnc3cnc(N4CC5CC5(C)C4)nc23)ccc1Oc1ccc2c(c1)ncn2C` (stereo not shown) [Example 225], the half-maximal inhibitory concentration (IC50) in experiment [1] (read-out: Assay 1 IC50) was 149 nM; against ErbB2 WT it was 218 nM; against EGFR, not below 10000 nM; in experiment [2], 85.4 nM.

As to `CO[C@@H]1CCCN(c2ncc3ncnc(Nc4ccc(Oc5ccc6c(c5)ncn6C)c(C)c4)c3n2)C1` [Example 227], the IC50 was 47.4 nM in experiment [1] (read-out: Assay 1 IC50), 66.9 nM at ErbB2 WT, not below 10000 nM against EGFR and 53.8 nM in experiment [2].

`Cc1cc(Nc2ncnc3cnc(N4CCC[C@@H]4C(F)(F)F)nc23)ccc1Oc1ccc2c(c1)ncn2C` [Example 229]: the IC50 was 171 nM in experiment [1] (read-out: Assay 1 IC50), 376 nM against ErbB2 WT, not below 10000 nM against EGFR and 165 nM in experiment [2].

For the molecule `Cc1cc(Nc2ncnc3cnc(N4CCC(F)(F)CC4)nc23)ccc1Oc1ccc2c(c1)ncn2C` [Example 236], the half-inhibitory concentration (IC50) in experiment [1] (read-out: Assay 1 IC50) was 149 nM; against ErbB2 WT, 352 nM; against EGFR it was not below 10000 nM; in experiment [2], 89.9 nM.

Consider `COC1CC2(C1)CN(c1ncc3ncnc(Nc4ccc(Oc5ccc6c(c5)ncn6C)c(C)c4)c3n1)C2` [Example 237], for which the IC50 in experiment [1] (read-out: Assay 1 IC50) was 32 nM; against ErbB2 WT it was 70.2 nM; on EGFR it was not below 10000 nM; in experiment [2] it was 71.6 nM.

Turning to `Cc1cc(Nc2ncnc3cnc(N4CCC4C(F)(F)F)nc23)ccc1Oc1ccc2c(c1)ncn2C` (stereo not shown) [Example 238], the IC50 in experiment [1] (read-out: Assay 1 IC50) was 99.3 nM; on ErbB2 WT it was 227 nM; at EGFR, not below 10000 nM; in experiment [2], 163 nM.

Consider `Cc1cc(Nc2ncnc3cnc(N4CCCCC4)nc23)ccc1Oc1ccc2c(c1)ncn2C` [Example 242], for which the half-maximal inhibitory concentration (IC50) in experiment [1] (read-out: Assay 1 IC50) is 111 nM; against ErbB2 WT, 130 nM; against EGFR, not below 10000 nM; in experiment [2], 76.3 nM.

With `Cc1cc(Nc2ncnc3cnc(N4CC(OC(F)F)C4)nc23)ccc1Oc1ccc2c(c1)ncn2C` [Example 244], the 50% inhibitory concentration (IC50) in experiment [1] (read-out: Assay 1 IC50) is 41.9 nM; at ErbB2 WT it was 107 nM; against EGFR it was not below 10000 nM; in experiment [2], 92.2 nM.

Take `Cc1cc(Nc2ncnc3cnc(N4CC(COC(F)F)C4)nc23)ccc1Oc1ccc2c(c1)ncn2C` [Example 245]: the IC50 in experiment [1] (read-out: Assay 1 IC50) is 50.4 nM; on ErbB2 WT it was 142 nM; against EGFR, not below 10000 nM; in experiment [2], 109 nM.

As to `Cc1cc(Nc2ncnc3cnc(N4CC(C)(O)C4)nc23)ccc1Oc1ccc2c(c1)ncn2C` [Example 246], the IC50 is 28.2 nM in experiment [1] (read-out: Assay 1 IC50), 70.8 nM at ErbB2 WT, not below 10000 nM against EGFR and 103 nM in experiment [2].

Turning to `CO[C@H]1CCCN(c2ncc3ncnc(Nc4ccc(Oc5ccc6c(c5)ncn6C)c(C)c4)c3n2)C1` [Example 248], the half-inhibitory concentration (IC50) in experiment [1] (read-out: Assay 1 IC50) is 57.4 nM; against ErbB2 WT it was 122 nM; against EGFR, not below 10000 nM; in experiment [2] it was 65.7 nM.

Take `Cc1cc(Nc2ncnc3cnc(N4CC[C@H](C)C4=O)nc23)ccc1Oc1ccc2c(c1)ncn2C` [Example 250]: the IC50 in experiment [1] (read-out: Assay 1 IC50) was 46.3 nM; on ErbB2 WT, 67.6 nM; against EGFR it was not below 10000 nM; in experiment [2], 54.6 nM.

As for `Cc1cc(Nc2ncnc3cnc(N4C5COCC4C5)nc23)ccc1Oc1ccc2c(c1)ncn2C` [Example 255], the IC50 was 113 nM in experiment [1] (read-out: Assay 1 IC50), 434 nM at ErbB2 WT, not below 10000 nM against EGFR and 160 nM in experiment [2].

With `Cc1cc(Nc2ncnc3cnc(N4CCOC[C@@H]4C)nc23)ccc1Oc1ccc2c(c1)ncn2C` [Example 258], the IC50 in experiment [1] (read-out: Assay 1 IC50) is 88.3 nM; on ErbB2 WT, 177 nM; on EGFR it was not below 10000 nM; in experiment [2], 51.4 nM.
